Measured values published in patent US5470858A, “Derivatives of (hetero)aromatic ethers and thioethers having antihyperlipidemic activity, process for their preparation and pharmaceutical compositions containing them” (Pierrel SpA, priority 1991, dated 1995).
Read-outs that look alike come from different tables or passages of the source.

What was measured:
Assay type in all cases: in vivo
[1] = test system: hyperlipaemic SD male rats; assay: Hypolipemizing activity, 15 days experimental model, modified diet; details: rat, oral; for Cholesterol VLDL + LDL (percent variation vs hyperlipaemic controls): by difference between total and HDL; for Hepatic index (percent variation vs hyperlipaemic controls): index = (Liver weight/body weight) × 100
Description: (§1) The hypolipemizing activity of the compounds of the present invention has been evaluated in the rat using SD male animals (Charles River) of an initial weight of 150 g, housed in controlled environment at a temperature of 21°±1° C., relative humidity 60% and a 12 hours light/dark cycle.
Experimental models have been used in which the animals are rendered hiperlipaemic by "ad libitum" food administration with a modified Nath diet (Atherosclerosis 30, 1978, pag. 45-46) having the following composition:
In the second model a diet was used which was modified with respect to the former one by the following parameters: […]
The animals were fasted with this diet for 15 days consecutively, during which they received the pharmacological treatment once a day by oral route and were sacrificed 24 hours after the last administration. At the sacrifice time the blood was removed for the lipid determination and the liver was removed as well to be weighed and used for the evaluation of the catalase enzyme as the index of the peroxysomes proliferation and thus of hepatotoxicity.
This experimental model has been used only for the molecules which in the first model were found more promising, and has permitted to get values of the serum lipids from 2 to 3 times higher than the normal values both for the total cholesterol and for the triglycerides.
This experimental model was used to:
a) evaluate the effectiveness on a less marked hyperlipoproteinaemy, and
b) assess mainly at the hepatic level the tolerability of the compounds during a more extended treatment.
(§2) The determination of the triglycerides, of the total cholesterol and of the cholesterol associated to the HDL has been effected by means of a commercial enzymatic kit. The concentration of the cholesterol associated to VLDL+LDL has been determined by difference between total cholesterol and HDL.
On the basis of the indications provided by this screening the most interesting compounds have been evaluated by the 15 days experimental model which permits both the evaluation of the effectiveness in the case of a hyperlipaemia less marked and more constant, and the tolerability control of the compounds during a longer term treatment.
In this case too the results (reported in the following table 2) are expressed as the percent variation with respect to the hyperlipaemic controls to which carboxymethylcellulose as 0.5% in water was administered by oral route at the dose of 10 ml/kg/day. The same vehicle was used for the suspension of the compounds being tested, administered at the doses; of 50 and 100 mg/kg/day by oral route.

catalase enzyme = assay: Hepatic tolerability, 15 days at high dose: catalase enzyme activity in liver (index of peroxysomes proliferation); details: rat liver, oral, 15 days, 300 mg/kg/day; absolute values; solvent 539,8
Description: (§3) The hypolipemizing activity of the compounds of the present invention has been evaluated in the rat using SD male animals (Charles River) of an initial weight of 150 g, housed in controlled environment at a temperature of 21°±1° C., relative humidity 60% and a 12 hours light/dark cycle. The animals were fasted with this diet for 15 days consecutively, during which they received the pharmacological treatment once a day by oral route and were sacrificed 24 hours after the last administration. At the sacrifice time the blood was removed for the lipid determination and the liver was removed as well to be weighed and used for the evaluation of the catalase enzyme as the index of the peroxysomes proliferation and thus of hepatotoxicity. In order to evaluate the hepatic tolerability of the compounds of interest they have been administered for 15 days at a high dose (300 mg/kg/day) according to the same conditions of the previous experiment.24 hours after the last treatment the animals have been sacrificed, and the liver has been removed and stored at -20° C. up to the time of dosing the activity of the catalase enzyme (Methods of enzymatic analysis, vol.2, pag. 673, 1974 edit. H. U. Bergmeyer, Verlag Chemie International).

[2] = test system: hyperlipaemic SD male rats; assay: Hypolipemizing activity, 5 days experimental model, modified Nath diet; details: rat, oral; for change in vivo at 100 mg/kg/day / change in vivo at 300 mg/kg/day: 120 h; for Hepatic index (percent variation vs hyperlipaemic controls): index = (Liver weight/body weight) × 100
Description: as §1
Experimental models have been used in which the animals are rendered hiperlipaemic by "ad libitum" food administration with a modified Nath diet (Atherosclerosis 30, 1978, pag. 45-46) having the following composition: […]
hydrogenated coconut oil
In the first model the animals have been fed with this diet for 5 consecutive days, during which they received the pharmacological treatment once a day by oral route and were sacrificed 2 hours after the last administration.
At the time of the sacrifice the blood was removed, for the lipid determination, as well as the liver the weight of which was the index of a possible hepatomegaly.
By this experimental model the concentration of the serum lipids attained very high values which, in the control group, was four times the normal values for the total cholesterol and the triglycerides.
as §2
The results obtained in the experimental model of the 5 days duration for some compounds representative of the invention are reported in the following table 1. The data are expressed as percent variation with respect to the hyperlipaemic controls to which carboxymethylcellulose as 0.5% in water at the dose of 10 ml/kg/day by oral route was administered. The same vehicle was used for the suspension of the tested compounds at the doses of 100 and 300 mg/kg/day by oral route.

liver = assay: Hepatic tolerability, 15 days at high dose: hepatic index; details: rat, oral, 15 days, 300 mg/kg/day; absolute values; solvent 5,4
Description: as §3

[3] = 100 mg/kg/day, by difference between total and HDL, read-out: Cholesterol VLDL + LDL (percent variation vs hyperlipaemic controls)
[4] = 100 mg/kg/day, read-out: Cholesterol HDL (percent variation vs hyperlipaemic controls)
[5] = 100 mg/kg/day, read-out: Total Cholesterol (percent variation vs hyperlipaemic controls)
[6] = 100 mg/kg/day, read-out: Triglycerides (percent variation vs hyperlipaemic controls)
[7] = 300 mg/kg/day, by difference between total and HDL, read-out: Cholesterol VLDL + LDL (percent variation vs hyperlipaemic controls)
[8] = 300 mg/kg/day, read-out: Cholesterol HDL (percent variation vs hyperlipaemic controls)
[9] = 300 mg/kg/day, read-out: Total Cholesterol (percent variation vs hyperlipaemic controls)
[10] = 300 mg/kg/day, read-out: Triglycerides (percent variation vs hyperlipaemic controls)

In the case of `CC(C)COC(=O)c1ccc(OCC(O)CSc2nc3ccccc3o2)cc1` (stereo not drawn) [Example 11], the “Cholesterol HDL (percent variation vs hyperlipaemic controls)” value ([1]; 50 mg/kg/day) is reported as -9,9%, the “Total Cholesterol (percent variation vs hyperlipaemic controls)” value ([1]; 50 mg/kg/day) is reported as -36,6% and the “Triglycerides (percent variation vs hyperlipaemic controls)” value ([1]; 50 mg/kg/day) is reported as -48,5%. For the same molecule, the “Cholesterol VLDL + LDL (percent variation vs hyperlipaemic controls)” value ([1]; 50 mg/kg/day) was -39,7%, the “Hepatic index (percent variation vs hyperlipaemic controls)” value ([1]; 50 mg/kg/day) was “+0,2%” and the “Cholesterol HDL (percent variation vs hyperlipaemic controls)” value ([1]; 100 mg/kg/day) was “+16,1%”. For the same molecule, the “Total Cholesterol (percent variation vs hyperlipaemic controls)” value ([1]; 100 mg/kg/day) was -34,4%, the “Triglycerides (percent variation vs hyperlipaemic controls)” value ([1]; 100 mg/kg/day) was -46,8% and the “Cholesterol VLDL + LDL (percent variation vs hyperlipaemic controls)” value ([1]; 100 mg/kg/day) was -40,2%. The “Hepatic index (percent variation vs hyperlipaemic controls)” value ([1]; 100 mg/kg/day) was -3,1%, the Catalase enzyme activity (catalase enzyme) was 444,7 umoli/min/mg proteins and the change in vivo at 100 mg/kg/day [2, 3] was -22.8%. For the same molecule, the change in vivo at 100 mg/kg/day [2, 4] was 9.5%, the change in vivo at 100 mg/kg/day [2, 5] was -21.4% and the change in vivo at 100 mg/kg/day [2, 6] was -21.6%. For the same molecule, the change in vivo at 300 mg/kg/day [2, 7] was -39.7%, the change in vivo at 300 mg/kg/day [2, 8] was 14.9% and the change in vivo at 300 mg/kg/day [2, 9] was -37.1%. For the same molecule, the change in vivo at 300 mg/kg/day [2, 10] was -30.3%, the “Hepatic index (percent variation vs hyperlipaemic controls)” value ([2]; 100 mg/kg/day) was -2,3% and the “Hepatic index (percent variation vs hyperlipaemic controls)” value ([2]; 300 mg/kg/day) was -1,7%. For the same molecule, the “Hepatic index (Liver weight/body weight) × 100” value (liver) was 5,8.
For `CC(C)COC(=O)c1ccc(OCC(=O)CSc2nc3ccccc3s2)cc1` [Example 2, 2-[3-[(p-isobutyloxycarbonyl)phenoxy]-2-oxo-propylthio]-benzothiazole], the “Cholesterol HDL (percent variation vs hyperlipaemic controls)” value ([1]; 50 mg/kg/day) was -24,5%, the “Total Cholesterol (percent variation vs hyperlipaemic controls)” value ([1]; 50 mg/kg/day) was -13,1% and the “Triglycerides (percent variation vs hyperlipaemic controls)” value ([1]; 50 mg/kg/day) was -0,2%. For the same molecule, the “Cholesterol VLDL + LDL (percent variation vs hyperlipaemic controls)” value ([1]; 50 mg/kg/day) was -12,0%, the “Hepatic index (percent variation vs hyperlipaemic controls)” value ([1]; 50 mg/kg/day) was “+3,5%” and the “Cholesterol HDL (percent variation vs hyperlipaemic controls)” value ([1]; 100 mg/kg/day) was -0,4%. The “Total Cholesterol (percent variation vs hyperlipaemic controls)” value ([1]; 100 mg/kg/day) was -12,9%, the “Triglycerides (percent variation vs hyperlipaemic controls)” value ([1]; 100 mg/kg/day) was -18,7% and the “Cholesterol VLDL + LDL (percent variation vs hyperlipaemic controls)” value ([1]; 100 mg/kg/day) was -14,0%. For the same molecule, the “Hepatic index (percent variation vs hyperlipaemic controls)” value ([1]; 100 mg/kg/day) was -4,5%, the Catalase enzyme activity (catalase enzyme) was 603,0 umoli/min/mg proteins and the change in vivo at 100 mg/kg/day [2, 3] was -14.7%. For the same molecule, the change in vivo at 100 mg/kg/day [2, 4] was 10.4%, the change in vivo at 100 mg/kg/day [2, 5] was -13.2% and the change in vivo at 100 mg/kg/day [2, 6] was -22.1%. The change in vivo at 300 mg/kg/day [2, 7] was -21.8%, the change in vivo at 300 mg/kg/day [2, 8] was 13.9% and the change in vivo at 300 mg/kg/day [2, 9] was -19.5%. The change in vivo at 300 mg/kg/day [2, 10] was -32.5%, the “Hepatic index (percent variation vs hyperlipaemic controls)” value ([2]; 100 mg/kg/day) was -6,5% and the “Hepatic index (percent variation vs hyperlipaemic controls)” value ([2]; 300 mg/kg/day) was -1,6%. The “Hepatic index (Liver weight/body weight) × 100” value (liver) was 6,0.
In the case of `CC(C)COC(=O)c1ccc(OCC(CSc2nc3c(N)ncnc3n2[C@@H]2O[C@H](CO)[C@@H](O)[C@H]2O)=NNC(N)=O)cc1` [Example 33], the “Cholesterol HDL (percent variation vs hyperlipaemic controls)” value ([1]; 50 mg/kg/day) is reported as “+15,6%”, the “Total Cholesterol (percent variation vs hyperlipaemic controls)” value ([1]; 50 mg/kg/day) is reported as -29,7% and the “Triglycerides (percent variation vs hyperlipaemic controls)” value ([1]; 50 mg/kg/day) is reported as -20,5%. The “Cholesterol VLDL + LDL (percent variation vs hyperlipaemic controls)” value ([1]; 50 mg/kg/day) was -34,7%, the “Hepatic index (percent variation vs hyperlipaemic controls)” value ([1]; 50 mg/kg/day) was “+2,2%” and the “Cholesterol HDL (percent variation vs hyperlipaemic controls)” value ([1]; 100 mg/kg/day) was “+19,4%”. The “Total Cholesterol (percent variation vs hyperlipaemic controls)” value ([1]; 100 mg/kg/day) was -33,8%, the “Triglycerides (percent variation vs hyperlipaemic controls)” value ([1]; 100 mg/kg/day) was -30,6% and the “Cholesterol VLDL + LDL (percent variation vs hyperlipaemic controls)” value ([1]; 100 mg/kg/day) was -39,7%. The “Hepatic index (percent variation vs hyperlipaemic controls)” value ([1]; 100 mg/kg/day) was “+3,9%”, the Catalase enzyme activity (catalase enzyme) was 378,5 umoli/min/mg proteins and the change in vivo at 100 mg/kg/day [2, 3] was -37.4%. It also gave a change in vivo at 100 mg/kg/day [2, 4] of 22.2%, a change in vivo at 100 mg/kg/day [2, 5] of -34.8% and a change in vivo at 100 mg/kg/day [2, 6] of -27.8%. The change in vivo at 300 mg/kg/day [2, 7] was -46.9%, the change in vivo at 300 mg/kg/day [2, 8] was 16.6% and the change in vivo at 300 mg/kg/day [2, 9] was -44.1%. For the same molecule, the change in vivo at 300 mg/kg/day [2, 10] was -43%, the “Hepatic index (percent variation vs hyperlipaemic controls)” value ([2]; 100 mg/kg/day) was -1,6% and the “Hepatic index (percent variation vs hyperlipaemic controls)” value ([2]; 300 mg/kg/day) was -2,5%. For the same molecule, the “Hepatic index (Liver weight/body weight) × 100” value (liver) was 5,3.
